Source: patent US20260306484A1, “INVERSE AGONISTS OF RAR RELATED ORPHAN RECEPTORS (RORS)” (11949098 CANADA INC. (NUREDCO) c/o Jean I. TCHERVENKOV, priority 2023, published 2026)

Experiments:
[1] = test system: CD4+ cells from in-vitro polarized peripheral blood mononuclear cells; assay: Th17-polarized PBMCs treated 48 h, then PMA/ionomycin and intracellular staining by flow cytometry; type: cell-based, human; conditions: 750 nM, PBMCs from 9 individuals, vs vehicle, paired t-test P<0.05
Experimental: FIG. 4 illustrates a bar graph represents the % of IL17A+ cells also known as Th17 cells out of CD4+ cells known as Helper T cells. The peripheral blood mononuclear cells from 9 individuals were polarized (in-vitro) using CD3/CD28 dynabeads in presence of TGFβ, IL1B, IL6 and IL23 for 14 days. The cells from each individual was divided into two equal portions and one portion was treated with the Cpd10 at dose of 750 nM and the second portion was treated with the vehicle for 48 hours followed by PMA/ionomycin in presence of transport blocker for 6 hours. Cpd10 decreased the % of IL17A+CD4+ in treated compared to vehicle treated controls and measured by flow cytometry. Paired t-test, significant, P<0.05.
(§1) FIG. 5 illustrates a bar graph represents the % of IL21+ cells which includes all types of CD4+ cells secreting IL21 (e.g. Th17, Tfh). The peripheral blood mononuclear cells from 9 individuals were polarized (in-vitro) using CD3/CD28 dynabeads in presence of TGFβ, IL1β, IL6 and IL23 for 14 days. The cells from each individual was divided into two equal portions and one portion was treated with the Cpd10 at dose of 750 nM and the second portion was treated with the vehicle for 48 hours followed by PMA/ionomycin in presence of transport blocker for 6 hours. Cpd10 decreased the % of IL21+CD4+ in treated compared to vehicle treated controls measured by flow cytometry. Paired t-test Significant P<0.05.
as §1, with “FIG. 6” for “FIG. 5”, “of IL22+” for “of IL21+”, “secreting IL22” for “secreting IL21”, “Th17, Th22).” for “Th17, Tfh).”, “of IL22+CD4+” for “of IL21+CD4+”, “Paired t-test, significant,” for “Paired t-test Significant”
FIG. 7 illustrates a bar graph represents the % RORγt+ cells which includes all types of CD4+ cells expressing RORγt (e.g. Th17). The peripheral blood mononuclear cells from 9 individuals were polarized (in-vitro) using CD3/CD28 dynabeads in presence of TGFβ, IL1β, IL6 and IL23 for 14 days. The cells from each individual was divided into two equal portions and one portion was treated with the Cpd10 at dose of 750 nM and the second portion was treated with the vehicle for 48 hours followed by PMA/ionomycin in presence of transport blocker for 6 hours. Cpd10 increased the % of RORγt+ CD4+ in treated compared to vehicle treated controls measured by flow cytometry. […]

[2] = test system: breast cancer cell lines; assay: Cell colony forming units, breast cancer; type: cell-based, human; conditions: 5 micromolar
[3] = test system: Hepa1-6 cells; assay: Hepa1-6 cell viability assay (MTT, GFP); type: cell-based, mouse; conditions: varying concentrations
Description: (§2) FIG. 30 illustrates in vitro cell viability assay both human HuH-7 and mouse Hepa1-6 cell lines with increasing concentrations of compound 10. In the human cell line you see an effect with as low as 1mMol concentration. HuH-7 and Hepa1-6 cell viability assays.

[4] = test system: HuH-7 cells; assay: HuH-7 cell viability assay (MTT, GFP); type: cell-based, human
Description: as §2

[5] = test system: HuH-7 cells; assay: HuH-7 colony formation assay; type: cell-based, human
Description: (§3) FIG. 32 illustrates another in vitro viability assay Colony Formation Assay. […] HuH-7 and Hepa1-6 colony formation assays.
(§4) FIG. 33 illustrates another in vitro viability assay Colony Formation Assay. […] HuH-7 and Hepa1-6 colony formation assays.

[6] = test system: pancreatic cancer (PDL1 expression); assay: PDL1 immune checkpoint expression in pancreatic cancer; type: cell-based, human; conditions: pancreatic cancer (FIG. 19)
[7] = test system: Hepa1-6 cells; assay: Hepa1-6 colony formation assay; type: cell-based, mouse
Description: as §3, §4

[8] = test system: Balb/c skin grafts; assay: Balb/c skin graft survival in sensitized C57BL/6 recipients (Example 9); type: in vivo, mouse (C57BL/6); conditions: for median graft survival: daily ip, cpd 13 1 mg/kg, tacrolimus 0.5 mg/kg, or both, ctrl = 6 days, P-value<<0.001, mantel-cox test
Experimental: C57BL/6 mice were sensitized by 3 IP injections of 10 M Balb/c splenocytes at day 0, 7 and 14. The mice were transplanted at day 15 with 1 cm^2 skin grafts from Balb/c mice and treated daily with ip injections of vehicle (ctrl), cpd 13 1 mg/kg (131 mg/kg), tacrolimus 0.5 mg/kg (tacro0.5 mg/kg) and cpd13 1 mg/kg+tacrolimus 0.5 mg/kg (131 mg/kg+tacro0.5 mg/kg). P-value<<0.001, mantel-cox test; median graft survival: ctrl=6 days, tacro0.5 mg/kg=7 days, 131 mg/kg=13.5 days and cpd13 131 mg/kg+tacro0.5 mg/kg=23 days.

Row | Compound | % of IL17A+ cells (Th17) out of CD4+ cells [1] | % of IL21+CD4+ cells [1] | % of IL22+CD4+ cells [1] | % of RORγt+ CD4+ cells [1] | ability to form colony forming units [2] | Hepa1-6 cell viability, GFP assay [3] | Hepa1-6 cell viability, MTT assay [3] | minimal effective concentration ([4]; human cell line HuH-7, read-out: lowest concentration with an effect on cell viability) | HuH-7 cell viability, GFP assay ([4]; varying concentrations) | HuH-7 cell viability, MTT assay ([4]; varying concentrations) | minimal effective concentration ([5]; Homo sapiens, Huh-7, both cell lines suppressed, read-out: concentration at which HuH-7 colony formation is suppressed) | HuH-7 colony growth ability ([5]; varying concentrations) | expression of PDL1 [6] | minimal effective concentration ([7]; Mus musculus, Hepa1-6, both cell lines suppressed, read-out: concentration at which Hepa1-6 colony formation is suppressed) | Hepa1-6 colony growth ability ([7]; varying concentrations) | median graft survival [8] | skin graft survival increase ([8]; increase survival from 1 up to 3 weeks (FIG. 50))
1 | CN1CCN(CC(=O)Nc2sc3c(c2C(=O)NCc2ccccc2)CCCC3)CC1 [Compound 10, N-benzyl-2-(2-(4-methylpiperazin-1-yl)acetamido)-4,5,6,7-tetrahydrobenzo[b]thiophene-3-carboxamide] | decreased | decreased | decreased | increased | significantly reduces | significant and dose dependent difference | significant and dose dependent difference | 1000 µM | significant and dose dependent difference | significant and dose dependent difference | 2500 µM | significant and dose dependent difference | increases that expression | 2500 µM | significant and dose dependent difference | – | –
2 | C[C@@H]1CCN(C(=O)c2c(NC(=O)c3cccnc3)sc3c2CCCC3)[C@H](C)C1 [Compound 13, N-(3-((2R,4R)-2,4-dimethylpiperidine-1-carbonyl)-4,5,6,7-tetrahydrobenzo[b]thiophen-2-yl) nicotinamide] | – | – | – | – | – | – | – | – | – | – | – | – | – | – | – | 13.5 days | up to 3 weeks
3 | C=CC[C@@H]1/C=C(\C)C[C@H](C)C[C@H](OC)[C@H]2O[C@@](O)(C(=O)C(=O)N3CCCC[C@H]3C(=O)O[C@H](/C(C)=C/[C@@H]3CC[C@@H](O)[C@H](OC)C3)[C@H](C)[C@@H](O)CC1=O)[C@H](C)C[C@@H]2OC [tacrolimus, reference compound] | – | – | – | – | – | – | – | – | – | – | – | – | – | – | – | 7 days | –
